According to US12435044B2, “Pyridazinone herbicides and pyridazinone intermediates used to prepare a herbicide” (FMC Corporation, priority 2018, dated 2025):

Legend:
Format in all cases: in vivo
[1] = system: oat, wild (Avena fatua); experiment: Test D pre-/postemergence controlled growth environment test
Source text: (§1) Seeds of plant species selected from blackgrass (Alopecurus myosuroides), galium (catchweed bedstraw, Galium aparine), kochia (Kochia scoparia), oilseed rape (Brassica napus), barley, spring (Hordeum vulgare), wheat, spring (Triticum aestivum), oat, wild (Avena fatua), barley, winter (Hordeum vulgare) and wheat, winter (Triticum aestivum) were planted into a silt loam soil and treated preemergence with test chemicals formulated in a non-phytotoxic solvent mixture which included a surfactant.
(§2) At the same time, plants selected from these crop and weed species and also bluegrass (annual bluegrass, Poa annua), canarygrass (littleseed canarygrass, Phalaris minor), chickweed (common chickweed, Stellaria media), bromegrass, downy (downy bromegrass, Bromus tectorum), field poppy (Papaver rhoeas), field violet (Viola arvensis), foxtail, green (Setaria viridis), deadnettle (henbit deadnettle, Lamium amplexicaule), ryegrass, Italian (Lolium multiflorum), lambsquarters (Chenopodium album), pigweed (Amaranthus retroflexus), chamomile (scentless chamomile, Matricaria inodora), Russian thistle (Salsola kali), speedwell (bird's-eye speedwell, Veronica persica), buckwheat, wild (Polygonum convolvulus), mustard, wild (Sinapis arvensis), radish, wild (Raphanus raphanistrum), windgrass (Apera spica-venti), geranium, cutleaf (Geranium dissectum) and Canada thistle (Cirsium arvense) were planted in pots containing Redi-Earth® planting medium (Scotts Company, 14111 Scottslawn Road, Marysville, Ohio 43041) comprising spaghnum peat moss, vermiculite, wetting agent and starter nutrients and treated with postemergence applications of the test chemicals formulated in the same manner. Plants ranged in height from 2 to 18 cm (1- to 4-leaf stage). Treated plants and controls were maintained in a controlled growth environment for 14 to 21 d after which time all species were compared to controls and visually evaluated. Plant response ratings, summarized in Table D, are based on a scale of 0 to 100 where 0 is no effect and 100 is complete control. A dash (-) response means no test result.

[2] = system: galium (catchweed bedstraw, Galium aparine); experiment: as above
Source text: as §1, §2

[3] = system: wheat, winter (Triticum aestivum); experiment: as above
Source text: as §1, §2

[4] = system: wheat, spring (Triticum aestivum); experiment: as above
Source text: as §1, §2

[5] = system: blackgrass (Alopecurus myosuroides); experiment: as above
Source text: as §1, §2

[6] = system: kochia (Kochia scoparia); experiment: as above
Source text: as §1, §2

[7] = system: barley, spring (Hordeum vulgare); experiment: as above
Source text: as §1, §2

[8] = system: barnyardgrass (Echinochloa crus-galli); experiment: Test A pre-/postemergence greenhouse test
Source text: (§3) Seeds of plant species selected from barnyardgrass (Echinochloa crus-galli), kochia (Kochia scoparia), ragweed (common ragweed, Ambrosia elatior), ryegrass, Italian (Lolium multiflorum), foxtail, giant (Setaria faberii), foxtail, green (Setaria viridis) and pigweed (Amaranthus retroflexus) were planted into a blend of loam soil and sand and treated preemergence with a directed soil spray using test chemicals formulated in a non-phytotoxic solvent mixture which included a surfactant.
(§4) At the same time, plants selected from these weed species and also wheat (Triticum aestivum), corn (Zea mays), blackgrass (Alopecurus myosuroides) and galium (catchweed bedstraw, Galium aparine) were planted in pots containing the same blend of loam soil and sand and treated with postemergence applications of test chemicals formulated in the same manner. Plants ranged in height from 2 to 10 cm and were in the one- to two-leaf stage for the postemergence treatment. Treated plants and untreated controls were maintained in a greenhouse for approximately 10 d, after which time all treated plants were compared to untreated controls and visually evaluated for injury. Plant response ratings, summarized in Table A, are based on a 0 to 100 scale where 0 is no effect and 100 is complete control. A dash (-) response means no test result.

[9] = system: ryegrass, Italian (Lolium multiflorum); experiment: Test A pre-/postemergence greenhouse test
Source text: as §3, §4

[10] = system: ragweed (common ragweed, Ambrosia elatior); experiment: Test A pre-/postemergence greenhouse test
Source text: as §3, §4

[11] = system: pigweed (Amaranthus retroflexus); experiment: Test A pre-/postemergence greenhouse test
Source text: as §3, §4

[12] = system: kochia (Kochia scoparia); experiment: Test A pre-/postemergence greenhouse test
Source text: as §3, §4

## Cc1ccc2ccc(C)c(-c3c(O)c(Cl)nn(C)c3=O)c2c1 [Cpd. No. 20, 6-chloro-4-(2,7-dimethyl-1-naphthalenyl)-5-hydroxy-2-methyl-3(2H)-pyridazinone]
[1]; Postemergence, 16 g ai/ha
  Plant response rating, Oat, Wild: 25
[1]; Postemergence, 31 g ai/ha
  Plant response rating, Oat, Wild: 65
[1]; Postemergence, 62 g ai/ha
  Plant response rating, Oat, Wild: 80
[1]; Postemergence, 125 g ai/ha
  Plant response rating, Oat, Wild: 90
[1]; Preemergence, 16 g ai/ha
  Plant response rating, Oat, Wild: 22
[1]; Preemergence, 31 g ai/ha
  Plant response rating, Oat, Wild: 33
[1]; Preemergence, 62 g ai/ha
  Plant response rating, Oat, Wild: 73
[1]; Preemergence, 125 g ai/ha
  Plant response rating, Oat, Wild: 83
[2]; Postemergence, 16 g ai/ha
  Plant response rating, Galium: 80
[2]; Postemergence, 31 g ai/ha
  Plant response rating, Galium: 90
[2]; Postemergence, 62 g ai/ha
  Plant response rating, Galium: 90
[2]; Postemergence, 125 g ai/ha
  Plant response rating, Galium: 99
[2]; Preemergence, 16 g ai/ha
  Plant response rating, Galium: 78
[2]; Preemergence, 31 g ai/ha
  Plant response rating, Galium: 85
[2]; Preemergence, 62 g ai/ha
  Plant response rating, Galium: 97
[2]; Preemergence, 125 g ai/ha
  Plant response rating, Galium: 100
[3]; Postemergence, 16 g ai/ha
  Plant response rating, Wheat, Winter: 10
[3]; Postemergence, 31 g ai/ha
  Plant response rating, Wheat, Winter: 15
[3]; Postemergence, 62 g ai/ha
  Plant response rating, Wheat, Winter: 20
[3]; Postemergence, 125 g ai/ha
  Plant response rating, Wheat, Winter: 30
[3]; Preemergence, 16 g ai/ha
  Plant response rating, Wheat, Winter: 0
[3]; Preemergence, 31 g ai/ha
  Plant response rating, Wheat, Winter: 0
[3]; Preemergence, 62 g ai/ha
  Plant response rating, Wheat, Winter: 5
[3]; Preemergence, 125 g ai/ha
  Plant response rating, Wheat, Winter: 17
[4]; Postemergence, 16 g ai/ha
  Plant response rating, Wheat, Spring: 15
[4]; Postemergence, 31 g ai/ha
  Plant response rating, Wheat, Spring: 25
[4]; Postemergence, 62 g ai/ha
  Plant response rating, Wheat, Spring: 35
[4]; Postemergence, 125 g ai/ha
  Plant response rating, Wheat, Spring: 55
[4]; Preemergence, 16 g ai/ha
  Plant response rating, Wheat, Spring: 0
[4]; Preemergence, 31 g ai/ha
  Plant response rating, Wheat, Spring: 12
[4]; Preemergence, 62 g ai/ha
  Plant response rating, Wheat, Spring: 28
[4]; Preemergence, 125 g ai/ha
  Plant response rating, Wheat, Spring: 62
[5]; Postemergence, 16 g ai/ha
  Plant response rating, Blackgrass: 15
[5]; Postemergence, 31 g ai/ha
  Plant response rating, Blackgrass: 25
[5]; Postemergence, 62 g ai/ha
  Plant response rating, Blackgrass: 50
[5]; Postemergence, 125 g ai/ha
  Plant response rating, Blackgrass: 60
[5]; Preemergence, 16 g ai/ha
  Plant response rating, Blackgrass: 0
[5]; Preemergence, 31 g ai/ha
  Plant response rating, Blackgrass: 8
[5]; Preemergence, 62 g ai/ha
  Plant response rating, Blackgrass: 20
[5]; Preemergence, 125 g ai/ha
  Plant response rating, Blackgrass: 58
[6]; Postemergence, 16 g ai/ha
  Plant response rating, Kochia: 70
[6]; Postemergence, 31 g ai/ha
  Plant response rating, Kochia: 70
[6]; Postemergence, 62 g ai/ha
  Plant response rating, Kochia: 70
[6]; Postemergence, 125 g ai/ha
  Plant response rating, Kochia: 80
[6]; Preemergence, 16 g ai/ha
  Plant response rating, Kochia: 7
[6]; Preemergence, 31 g ai/ha
  Plant response rating, Kochia: 25
[6]; Preemergence, 62 g ai/ha
  Plant response rating, Kochia: 35
[6]; Preemergence, 125 g ai/ha
  Plant response rating, Kochia: 80
[7]; Postemergence, 16 g ai/ha
  Plant response rating, Barley, Spring: 0
[7]; Postemergence, 31 g ai/ha
  Plant response rating, Barley, Spring: 5
[7]; Postemergence, 62 g ai/ha
  Plant response rating, Barley, Spring: 10
[7]; Postemergence, 125 g ai/ha
  Plant response rating, Barley, Spring: 20
[7]; Preemergence, 16 g ai/ha
  Plant response rating, Barley, Spring: 0
[7]; Preemergence, 31 g ai/ha
  Plant response rating, Barley, Spring: 0
[7]; Preemergence, 62 g ai/ha
  Plant response rating, Barley, Spring: 2
[7]; Preemergence, 125 g ai/ha
  Plant response rating, Barley, Spring: 10
[8]; Postemergence, 31 g ai/ha
  Plant response rating (0 to 100 scale): 80
[8]; Postemergence, 125 g ai/ha
  Plant response rating (0 to 100 scale): 100
[8]; Preemergence, 31 g ai/ha
  Plant response rating (0 to 100 scale): 70
[8]; Preemergence, 125 g ai/ha
  Plant response rating (0 to 100 scale): 100
[9]; Postemergence, 31 g ai/ha
  Plant response rating (0 to 100 scale): 90
[9]; Postemergence, 125 g ai/ha
  Plant response rating (0 to 100 scale): 100
[9]; Preemergence, 31 g ai/ha
  Plant response rating (0 to 100 scale): 90
[9]; Preemergence, 125 g ai/ha
  Plant response rating (0 to 100 scale): 100
[10]; Postemergence, 31 g ai/ha
  Plant response rating (0 to 100 scale): 90
[10]; Postemergence, 125 g ai/ha
  Plant response rating (0 to 100 scale): 90
[10]; Preemergence, 31 g ai/ha
  Plant response rating (0 to 100 scale): 20
[10]; Preemergence, 125 g ai/ha
  Plant response rating (0 to 100 scale): 90
[11]; Postemergence, 31 g ai/ha
  Plant response rating (0 to 100 scale): 90
[11]; Postemergence, 125 g ai/ha
  Plant response rating (0 to 100 scale): 100
[11]; Preemergence, 31 g ai/ha
  Plant response rating (0 to 100 scale): 100
[11]; Preemergence, 125 g ai/ha
  Plant response rating (0 to 100 scale): 100
[12]; Postemergence, 31 g ai/ha
  Plant response rating (0 to 100 scale): 70
[12]; Postemergence, 125 g ai/ha
  Plant response rating (0 to 100 scale): 90
[12]; Preemergence, 31 g ai/ha
  Plant response rating (0 to 100 scale): 30
[12]; Preemergence, 125 g ai/ha
  Plant response rating (0 to 100 scale): 90
